Counter-ions that a name gives are not always drawn. Like-named read-outs stand apart in the source and are kept apart here.

Our source for the IC50 values is US11440913B2, “Aminoimidazopyridazines as kinase inhibitors” (BRISTOL-MYERS SQUIBB COMPANY, priority 2017, dated 2022).

Experiment [1] has as its system MLKL phosphorylation in HT29-L23 human colorectal adenocarcinoma cells. Description: MLKL Phosphorylation High-Content Assay. The experiment is classed as cell-based. The note with it: 6 h, necroptosis induced with TNFα, SMAC mimetic and Z-VAD, read-out: pMLKL (IC50). The essentials:
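HT29-L23 cells pretreated 30 min at 37 °C with compound (6.25 to 0.106 μM final), then necroptosis induced with TNFα 35 ng/mL, SMAC mimetic 700 nM and Z-VAD 140 nM for 6 h. Fixed cells immunostained for MLKL pS358 and imaged; IC50 and Ymax from 4-parameter logistic fit.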

The target in experiment [2] is His-GST-TVMV-hRIPK1(1-324) (Homo sapiens (Human), UniProt Q13546). Description: RIPK1 HTRF Binding Assay. The note with it: HTRF binding, 1 h at rt; read-out: RIPK1 (IC50). The gist of the method: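 HTRF probe-displacement binding: 1 nM His-GST-TVMV-hRIPK1(1-324) (baculovirus construct), 90.6 nM probe, 0.2 nM anti-GST-Tb in 20 mM HEPES, 10 mM MgCl2, 0.015% Brij-35, 4 mM DTT, 0.05 mg/mL BSA. Incubated 1 h at rt; FRET 520/495 nm ratio, inhibition relative to DMSO-only wells.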
Chain of His-GST-TVMV-hRIPK1(1-324) (Q13546 1-324): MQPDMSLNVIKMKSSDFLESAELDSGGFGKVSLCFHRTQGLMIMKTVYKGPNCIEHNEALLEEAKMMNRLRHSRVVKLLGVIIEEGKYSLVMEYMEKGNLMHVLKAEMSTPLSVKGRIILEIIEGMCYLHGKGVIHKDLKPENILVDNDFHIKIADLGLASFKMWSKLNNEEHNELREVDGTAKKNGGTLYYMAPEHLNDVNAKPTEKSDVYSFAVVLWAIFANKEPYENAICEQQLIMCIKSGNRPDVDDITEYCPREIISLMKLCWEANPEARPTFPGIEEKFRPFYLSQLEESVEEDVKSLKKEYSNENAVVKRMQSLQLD

A word on the IC50: it is the midpoint of a concentration-inhibition curve. In the case of `COc1ncc(-c2ccc3nc(NC(C)=O)cn3n2)cc1C(=O)NCc1cccc(OC(F)(F)F)c1` [Example 126, 5-{2-acetamidoimidazo[1,2-b]pyridazin-6-yl}-2-methoxy-N-{[3-(trifluoro-methoxy)phenyl]methyl}pyridine-3-carboxamide], the IC50 in experiment [1] (Homo sapiens) came out at 78 nM; in experiment [2], 73 nM.
The matching figures for `COc1ncc(-c2ccc3nc(NC(C)=O)cn3n2)cc1C(=O)NCc1c(F)ccc(F)c1OCC1CC1` [Example 127, N-{[2-(cyclopropylmethoxy)-3,6-difluorophenyl]methyl}-5-{2-acetamidoimidazo[1,2-b]pyridazin-6-yl}-2-methoxypyridine-3-carboxamide]: 33 nM and 4 nM.
Regarding `COc1ncc(-c2ccc3nc(NC(C)=O)cn3n2)cc1C(=O)NCc1c(F)cccc1OC1CCOCC1` [Example 128, 5-{2-acetamidoimidazo[1,2-b]pyridazin-6-yl}-N-{[2-fluoro-6-(oxan-4-yloxy)phenyl]methyl}-2-methoxypyridine-3-carboxamide, TFA], the IC50 was 64 nM in experiment [1] and 9 nM in experiment [2].
As to `COc1ncc(-c2ccc3nc(NC(C)=O)cn3n2)cc1C(=O)NCc1cc(F)cc(F)c1OC1CCOCC1` [Example 129, N-{[3,5-difluoro-2-(oxan-4-yloxy)phenyl]methyl}-5-{2-acetamidoimidazo[1,2-b]pyridazin-6-yl}-2-methoxypyridine-3-carboxamide, TFA], the values for the IC50 in experiment [1] and in experiment [2] were 2 nM and 1 nM, respectively.
In the case of `COc1ncc(-c2ccc3nc(NC(C)=O)cn3n2)cc1C(=O)NC(C)c1cc(F)cc(F)c1OCC1CC1` (stereo not drawn) [Example 130, N-{1-[2-(cyclopropylmethoxy)-3,5-difluorophenyl]ethyl}-5-{2-acetamidoimidazo[1,2-b]pyridazin-6-yl}-2-methoxypyridine-3-carboxamide], the values for the IC50 in experiment [1] and in experiment [2] were 3 nM and 4 nM, respectively.
For `COc1ncc(-c2ccc3nc(NC(C)=O)cn3n2)cc1C(=O)NCc1ccc(F)c(F)c1OC(C)C1CC1` (stereo not drawn) [Example 131, N-{[2-(1-cyclopropylethoxy)-3,4-difluorophenyl]methyl}-5-{2-acetamidoimidazo[1,2-b]pyridazin-6-yl}-2-methoxypyridine-3-carboxamide], the IC50 in experiment [1] stood at 481 nM; in experiment [2] it was 79 nM.
Regarding `COc1ncc(-c2ccc3nc(NC(C)=O)cn3n2)cc1C(=O)NCc1ccc(F)c(F)c1OC(C)C1CC1` (stereo not drawn) [Example 132, N-{[2-(1-cyclopropylethoxy)-3,4-difluorophenyl]methyl}-5-{2-acetamidoimidazo[1,2-b]pyridazin-6-yl}-2-methoxypyridine-3-carboxamide], the IC50 came out at 64 nM in experiment [1] and 10 nM in experiment [2].
Regarding `COc1ncc(-c2ccc3nc(NC(C)=O)cn3n2)cc1C(=O)NC(C)c1cc(F)cc(F)c1OCC1CC1` (stereo not drawn) [Example 133, N-{1-[2-(cyclopropylmethoxy)-3,5-difluorophenyl]ethyl}-5-{2-acetamidoimidazo[1,2-b]pyridazin-6-yl}-2-methoxypyridine-3-carboxamide], the IC50 in experiment [1] was 8 nM; in experiment [2], 23 nM.
For `COc1ncc(-c2ccc3nc(NC(C)=O)cn3n2)cc1C(=O)NCc1cccc(F)c1OC(C)C1CC1` (stereo not drawn) [Example 134, N-{[2-(1-cyclopropylethoxy)-3-fluorophenyl]methyl}-5-{2-acetamidoimidazo[1,2-b]pyridazin-6-yl}-2-methoxypyridine-3-carboxamide], the values for the IC50 in experiment [1] and in experiment [2] were 28 nM and 18 nM, respectively.
For the compound `COc1ncc(-c2ccc3nc(NC(C)=O)cn3n2)cc1C(=O)NCc1cccc(F)c1OC(C)C1CC1` (stereo not drawn) [Example 135, N-{[2-(1-cyclopropylethoxy)-3-fluorophenyl]methyl}-5-{2-acetamidoimidazo[1,2-b]pyridazin-6-yl}-2-methoxypyridine-3-carboxamide], the figures for the IC50 in experiment [1] and in experiment [2] were 7 nM and 3 nM, respectively.
For the compound `COc1ncc(-c2ccc3nc(NC(C)=O)cn3n2)cc1C(=O)NCc1ncccc1OC(C)C1CC1` (stereo not drawn) [Example 136, N-{[3-(1-cyclopropylethoxy)pyridin-2-yl]methyl}-5-{2-acetamidoimidazo[1,2-b]pyridazin-6-yl}-2-methoxypyridine-3-carboxamide], the IC50 in experiment [1] (Homo sapiens) was determined as 100 nM; in experiment [2], 17 nM.
With `COc1ncc(-c2ccc3nc(NC(C)=O)cn3n2)cc1C(=O)NC(C)c1ccccc1OC(F)(F)F` (stereo not drawn) [Example 137, 5-{2-acetamidoimidazo[1,2-b]pyridazin-6-yl}-2-methoxy-N-{1-[2-(trifluoro-methoxy)phenyl]ethyl}pyridine-3-carboxamide], the figures for the IC50 in experiment [1] (Homo sapiens) and in experiment [2] were 14 nM and 7 nM, respectively.
As to `COc1ncc(-c2ccc3nc(NC(C)=O)cn3n2)cc1C(=O)NCc1cc(F)cc(OC(F)(F)F)c1` [Example 138, 5-{2-acetamidoimidazo[1,2-b]pyridazin-6-yl}-N-{[3-fluoro-5-(trifluoromethoxy)phenyl]methyl}-2-methoxypyridine-3-carboxamide], the IC50 stood at 72 nM in experiment [1] (Homo sapiens) and 13 nM in experiment [2].
Turning to `COc1ncc(-c2ccc3nc(NC(C)=O)cn3n2)cc1C(=O)NC(C)c1ccccc1OC(F)(F)F` (stereo not drawn) [Example 139, 5-{2-acetamidoimidazo[1,2-b]pyridazin-6-yl}-2-methoxy-N-{1-[2-(trifluoro-methoxy)phenyl]ethyl}pyridine-3-carboxamide], the half-maximal inhibitory concentration (IC50) in experiment [1] is 25 nM; in experiment [2], 15 nM.
As for `COc1ncc(-c2ccc3nc(NC(C)=O)cn3n2)cc1C(=O)NCc1cc(F)cc(OCC2CC2)c1` [Example 140, N-{[3-(cyclopropylmethoxy)-5-fluorophenyl]methyl}-5-{2-acetamidoimidazo[1,2-b]pyridazin-6-yl}-2-methoxypyridine-3-carboxamide], the IC50 is 77 nM in experiment [1] (Homo sapiens) and 17 nM in experiment [2].
With `COc1ncc(-c2ccc3nc(NC(C)=O)cn3n2)cc1C(=O)NCc1c(F)ccc(F)c1OC` [Example 141, N-[(3,6-difluoro-2-methoxyphenyl)methyl]-5-{2-acetamidoimidazo[1,2-b]pyridazin-6-yl}-2-methoxypyridine-3-carboxamide], the values for the IC50 in experiment [1] (Homo sapiens) and in experiment [2] were 256 nM and 97 nM, respectively.
The matching figures for `COc1ncc(-c2ccc3nc(NC(C)=O)cn3n2)cc1C(=O)NCc1ccc(F)c(OCC2CC2)c1` [Example 142, N-{[3-(cyclopropylmethoxy)-4-fluorophenyl]methyl}-5-{2-acetamidoimidazo[1,2-b]pyridazin-6-yl}-2-methoxypyridine-3-carboxamide]: 181 nM and 29 nM.
Turning to `COc1ncc(-c2ccc3nc(NC(C)=O)cn3n2)cc1C(=O)N(C)Cc1cccc(OC(F)(F)F)c1` [Example 143, 5-{2-acetamidoimidazo[1,2-b]pyridazin-6-yl}-2-methoxy-N-methyl-N-{[3-(trifluoromethoxy)phenyl]meth-yl}pyridine-3-carboxamide], the IC50 in experiment [1] (Homo sapiens) turned out to be 4 nM; in experiment [2], 8 nM.
For the compound `COc1ncc(-c2ccc3nc(NC(C)=O)cn3n2)cc1C(=O)NCc1cccc(F)c1OC(C)C1CC1` (stereo not drawn) [Example 144, N-{[2-(1-cyclopropylethoxy)-3-fluorophenyl]methyl}-5-{2-acetamidoimidazo[1,2-b]pyridazin-6-yl}-2-methoxypyridine-3-carboxamide], the IC50 in experiment [1] and in experiment [2] was 6 nM in each case.
In the case of `COc1ncc(-c2ccc3nc(NC(C)=O)cn3n2)cc1C(=O)NCc1cc(OC(F)(F)F)ccc1F` [Example 145, 5-{2-acetamidoimidazo[1,2-b]pyridazin-6-yl}-N-{[2-fluoro-5-(trifluoro-methoxy)phenyl](deutero)methyl}-2-methoxypyridine-3-carboxamide], the IC50 in experiment [1] stood at 27 nM; in experiment [2], 5 nM.
On to `COc1ncc(-c2ccc3nc(NC(C)=O)cn3n2)cc1C(=O)NCc1cc(C(F)(F)F)ccc1Cl` [Example 147, N-{[2-chloro-5-(trifluoromethyl)phenyl]methyl}-5-{2-acetamidoimidazo[1,2-b]pyridazin-6-yl}-2-methoxypyridine-3-carboxamide], for which the IC50 is 37 nM in experiment [1] (Homo sapiens) and 95 nM in experiment [2].
Consider `COc1ncc(-c2ccc3nc(NC(C)=O)cn3n2)cc1C(=O)NCc1cc(F)cc(F)c1OC(C)C1CC1` (stereo not drawn) [Example 148, N-{[2-(1-cyclopropylethoxy)-3,5-difluorophenyl]methyl}-5-(2-acetamidoimidazo[1,2-b]pyridazin-6-yl}-2-methoxypyridine-3-carboxamide], for which the IC50 in experiment [1] (Homo sapiens) amounted to 2 nM; in experiment [2] it was 4 nM.
On to `COc1ncc(-c2ccc3nc(NC(C)=O)cn3n2)cc1C(=O)NCc1cc(OCC2CC2)ccc1F` [Example 149, N-{[5-(cyclopropylmethoxy)-2-fluorophenyl]methyl}-5-{2-acetamidoimidazo[1,2-b]pyridazin-6-yl}-2-methoxypyridine-3-carboxamide], for which the IC50 in experiment [1] (Homo sapiens) was 74 nM; in experiment [2] it was 16 nM.
Turning to `COc1ncc(-c2ccc3nc(NC(C)=O)cn3n2)cc1C(=O)NCc1c(F)cc(F)cc1OCC1CC1` [Example 150, N-{[2-(cyclopropylmethoxy)-4,6-difluorophenyl]methyl}-5-{2-acetamidoimidazo[1,2-b]pyridazin-6-yl}-2-methoxypyridine-3-carboxamide], the IC50 is 24 nM in experiment [1] (Homo sapiens) and 18 nM in experiment [2].
